Test results from patent US7465751B2 (priority 2002, dated 2008).

What was measured:
M2 muscarinic receptor = M2 muscarinic receptor (Rattus norvegicus, UniProt P10980); format: binding
M3 muscarinic receptor = M3 muscarinic receptor (Rattus norvegicus, UniProt P08483); format: binding
Sequence of M3 muscarinic receptor (P08483 whole entry): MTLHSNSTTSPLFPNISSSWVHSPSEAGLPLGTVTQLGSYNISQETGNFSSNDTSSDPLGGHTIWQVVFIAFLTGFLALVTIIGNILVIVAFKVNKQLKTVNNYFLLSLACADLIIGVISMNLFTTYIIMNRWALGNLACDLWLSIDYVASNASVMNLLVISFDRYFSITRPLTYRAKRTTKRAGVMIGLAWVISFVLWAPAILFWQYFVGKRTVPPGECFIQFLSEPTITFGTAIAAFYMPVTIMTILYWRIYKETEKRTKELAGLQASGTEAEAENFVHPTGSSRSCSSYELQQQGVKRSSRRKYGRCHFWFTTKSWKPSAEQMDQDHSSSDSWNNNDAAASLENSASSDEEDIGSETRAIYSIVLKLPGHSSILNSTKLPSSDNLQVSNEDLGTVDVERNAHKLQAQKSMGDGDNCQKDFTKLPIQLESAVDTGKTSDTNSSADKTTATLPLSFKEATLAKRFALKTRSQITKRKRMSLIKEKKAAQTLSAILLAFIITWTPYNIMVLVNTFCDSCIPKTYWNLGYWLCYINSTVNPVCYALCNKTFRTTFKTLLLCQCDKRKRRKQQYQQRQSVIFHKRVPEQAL

Sequence of M2 muscarinic receptor (P10980 whole entry): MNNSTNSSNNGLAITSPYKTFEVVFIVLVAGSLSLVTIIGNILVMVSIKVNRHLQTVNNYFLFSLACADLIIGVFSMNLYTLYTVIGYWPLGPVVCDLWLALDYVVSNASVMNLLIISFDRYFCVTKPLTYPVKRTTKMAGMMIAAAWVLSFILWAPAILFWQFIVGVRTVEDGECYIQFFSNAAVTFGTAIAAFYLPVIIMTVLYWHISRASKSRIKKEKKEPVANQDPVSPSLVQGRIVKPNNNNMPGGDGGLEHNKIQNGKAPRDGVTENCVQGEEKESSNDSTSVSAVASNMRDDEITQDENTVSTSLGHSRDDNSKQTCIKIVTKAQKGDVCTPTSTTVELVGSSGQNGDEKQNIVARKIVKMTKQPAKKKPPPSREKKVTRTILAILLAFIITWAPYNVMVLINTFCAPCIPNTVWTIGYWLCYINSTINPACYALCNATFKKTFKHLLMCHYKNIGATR

“(3S)-1-[(phenylacetyl)pyrrolidin-3-yl]cyclopentyl(hydroxy)phenyl acetate [Compound No. 11]” was tested, and the “Receptor Binding Assay M2 PKi” value (M2 muscarinic receptor) was less than 6 and the “Receptor Binding Assay M3 pki” value (M3 muscarinic receptor) was less than 6.
